One data set relates to ICR mice. The data set can be described thus: Tail suspension test (antidepressant activity). It counts as in vivo. As to conditions: intragastrically 30 min before test, dose equimolar to 2.6 mg/kg amiloride. How it is done: The experiment was carried out on 36 male ICR mice weighing 22-25 g, divided into groups of 6 animals each under room lighting (300 lux). […] In experiments, test substances were administered intragastrically 30 min before the start of the test. Experimental groups received test compounds in an equimolar dose to the comparison drug amiloride. Animals of the remaining groups were treated with 2.6 mg/kg amiloride, 10 mg/kg amitriptyline, or 8 mg/kg imipramine. Distilled water was administered to the control group. The time of immobilization of the animals was recorded.

A further data set has as its target T1, NHE-1 (Oryctolagus cuniculus, UniProt P23791).
T1 construct: endogenous in cells; host or cells: rabbit platelets in platelet-rich plasma (male rabbits)
Description: NHE-1 inhibition assay on rabbit platelets (platelet shape change after acidification with sodium propionate, laser aggregometer). The format is cell-based. The note with it: 10 nM, rabbit platelet-rich plasma, decimal commas; read-out: NHE-1 inhibition at 10 nM, m ± SD, n = 6 (%). The protocol:
Evaluation of NHE-1 inhibition was carried out on rabbit platelets by the known method[39],[40]. The experiments were carried out on 15 male rabbits weighing 3.0-4.0 kg. Platelet-rich plasma (PRP) was obtained by centrifuging blood with 3.8% sodium citrate (1:10) at 1000 rpm for 12 min (Multi centrifuge CM 6M, Latvia). Platelet shapeshifting due to acidification was followed with a laser aggregometer BIOLA-220 LA (Russia). Test compounds (10 μl, 10 nM final concentration) were added to 200 μl of PRP 5 min in a cuvette before the addition of sodium propionate solution, incubated with constant stirring using a magnetic stirrer (800 rpm, 37 °C). To control samples for NHE-1 activation, a buffer solution containing sodium propionate was added to 200 μL of PRP (600 μL, 135 mM sodium propionate, 20 mM HEPES, 1 mM CaCI2, 1 mM MgCI2, 10 mM glucose; pH 6.7). The change in light transmission at pH 7.4, 37 °C was monitored in a Krebs solution (600 μL, 120 mM NaCl, 4.8 mM KCl, 1.2 mM KH2PO4, 2.5 mM MgSO4, 25 mM NaHCO3, 2.6 mM CaCl2, 5.4 mM glucose; pH 7.4). Test compounds were added to a final concentration of 10 nM to the cuvette into 200 μl of PRP 5 min before adding the sodium propionate solution, incubated with constant stirring using a magnetic stirrer (800 rpm, 37 °C). NHE-1 inhibitors zoniporide, rimeporide, amiloride were used as reference drugs. Assays were run in 6 independent series.

The next data set relates to IL-6 secretion. Description: Interleukin-6 secretion (ELISA) from LPS-stimulated peritoneal macrophages. It counts as cell-based, mice. As to conditions: male, C57BL/6J, mouse, primary peritoneal macrophages stimulated with LPS; CC50 versus IC50 of IL-6 secretion; read-out: selectivity of IL-6 inhibition over cytotoxicity. How it is done: (§1) Peritoneal macrophages (PM) were isolated from the peritoneal exudate of 30 male C57bl/6j mice. To accumulate PM, 1 ml of 3% peptone solution was injected intraperitoneally. After 3 days the mice were euthanized by cervical dislocation. Cells of peritoneal exudate were obtained by aseptically washing the abdominal cavity with 5 ml of sterile Hanks’s solution (+ 4-6 °C) without calcium and magnesium ions. The total number and viability of cells were assessed in a Goryaev counting chamber (Russia) with a 0.4% trypan blue staining (Sigma-Aldrich, USA). The cell concentration was adjusted to 1.0×10^6 cells/ml in DMEM (Gibco) supplemented with 2 mM L-glutamine (Gibco), 10% heat-inactivated fetal bovine serum (BioClot, Germany), 100 U/ml penicillin and […] streptomycin (Gibco) and plated 200 μl/well in 96-well transparent plates (SPL Life Sciences Co., Ltd., Korea). It was left for 2 h at 37°C in a humidified atmosphere with 5% CO2, after which the wells were washed to remove non-adherent cells. After 24 hours of incubation, 20 μl of the supernatant was removed and 20 μl of solutions of test compounds were added 30 min before E. coli O127:B8 LPS (100 ng/ml final concentration). Experiments were run in 3 independent replicates.
(§2) Cell supernatant was collected and centrifuged at 1000 g for 20 min in a 2-16PK Sigma centrifuge (Germany). The concentration of IL-6 was determined by ELISA using a commercial kit (Cloud-clone ELISA kit) with a microplate reader Infinite M200 PRO (Tecan, Austria).
(In general: ELISA stands for enzyme-linked immunosorbent assay.)

The test system of data set [1] is primary peritoneal macrophages of C57BL/6J mice. Described as above. It counts as cell-based. The protocol: as §1, §2
The nature of data set [2]: Cytotoxicity study (LDH activity in the medium) in peritoneal macrophages. It counts as cell-based. The note with it: male, C57BL/6J, mouse, primary peritoneal macrophages; murine peritoneal macrophages, LDH. The protocol:
as §1
(§3) The activity of lactate dehydrogenase (LDH) in a cell culture medium served as a marker of membrane permeability and cell death. Aliquotes of supernatants were taken after 24 h of inoculation with test compounds, mixed with 250 μl of […] NADH solution in 54 mM phosphate buffered saline (pH 7.5). Then, 25 μl of a 6.48 mM pyruvate solution was added to the mixture. The optical density was followed at a wavelength of 340 nm for 20 min. Conversion of optical density into cell viability was carried out according to a standard curve (DMSO-treated cells as 100% and 0.01% Triton X-100-treated cells as 0% viable cells).

The test system of data set [3] is primary peritoneal macrophages of C57BL/6J mice. The data set can be described thus: Nitric oxide synthesis (nitrite, Griess reagent) in LPS-stimulated peritoneal macrophages. It counts as cell-based. The note with it: 100 μM. How it is done: as §1
The accumulation of nitrite anion (a stable end product of NO decomposition produced by iNOS) in supernatants was determined using a standard Griess reagent. Briefly, 50 μl of supernatants collected 22 hours after incubation of PM with test and control compounds were mixed with 50 μl of 1% sulfonamide in 2.5% H3PO4 and 50 μl of 0.1% N-(1-naphthyl) ethylenediamine in 2,5% H3PO4. After incubation at 23 °C for 10 min in an orbital shaker, the optical density was determined at a wavelength of 550 nm with a microplate reader Infinite M200 PRO (Tecan, Austria).
In general terms: The Griess reaction detects nitrite, a stable product of nitric oxide.

A further data set deals with rabbit platelets. Description: ADP-induced platelet aggregation assay in rabbit platelet-rich plasma. It counts as cell-based. The note with it: 100 μM, ADP 5 μM. The protocol: Functional activity of platelets was determined on a two-channel laser analyzer of platelet aggregation "BIOLA-220 LA" (Russia) as described previously. The experiments were carried out on 6 male rabbits weighing 3.5–4 kg. To prepare platelet-rich plasma (PRP) venous blood was taken from the ear marginal vein of a rabbit, stabilized with a 3.8% sodium citrate solution in a ratio of 9:1 and centrifuged for 10 min at 1500 rpm. PRP (300 μL) and a solution of the test compound at a concentration of 100 μM were sequentially introduced into the cell of the aggregometer. The samples were incubated in thermostated cells of the aggregometer at 37 °C for 5 min. To induce aggregation adenosine-5-diphosphoric acid (ADP, Sigma, USA) at a final concentration of 5 μM, was added to the cuvette. Acetylsalicylic acid (Shandong Xinhua Pharmaceutical Co., Ltd., China) was used as a reference drug. Experiments were run in 5 independent replicates.

The subject of data set [4] is advanced glycation products from bovine serum albumin and glucose. The data set can be described thus: Antiglycating activity (AGE fluorescence, bovine serum albumin and glucose). As to conditions: BSA 1 mg/ml, glucose 0.36 M, 60 °C, 24 hrs; read-out: IC50 of formation of advanced glycation products. The format is biochemical. The protocol:
The glycation reaction was modeled using 1 mg/ml bovine serum albumin (Chemmed, Russia) and 0.36 M glucose (Vekton, Russia) in 50 mM phosphate buffer solution (PBS, pH 7.4) at 60 °C. After 24 hrs, albumin was precipitated using trichloroacetic acid (10% final concentration) and centrifugation (15 000 rpm, 4 min). The supernatant was removed by aspiration, and the residue was dissolved in 50 mM PBS (pH 10.5). Aliquots of 300 µl were transferred to a black flat-bottom 96-well microplate. AGE fluorescence was registered using Infinite M200 Pro (Tecan, Austria) microplate reader at excitation/emission wavelengths of 370/440 nm. Signals were normalized using blank samples containing BSA and the test compound in the appropriate concentration without the glucose. When normalized, the activity is expressed as the AGE fluorescence coefficient, determined by the formula: Flu=10^log10A-log10B-1, where A and B correspond to the absolute fluorescence values of the glucose-containing and mean glucose-free sample.
Activity percentage was calculated using the formula: A%=1-FluSample/FluControl×100%, where Flu(Sample) and Flu(Control) correspond to the normalized fluorescence coefficients of experimental and control samples. Experiments were run in 5 independent replicates.

The subject of data set [5] is primary peritoneal macrophages of C57BL/6J mice. Description: Cytotoxicity study (LDH activity in the medium) in peritoneal macrophages. The format is cell-based. The note with it: 100 μM, peritoneal macrophages. The protocol:
as §1, §3

Molecules are shown by their SMILES. Entries after “also recorded” stand apart in the source; their conditions may differ.

T1 sequence (P23791 whole entry): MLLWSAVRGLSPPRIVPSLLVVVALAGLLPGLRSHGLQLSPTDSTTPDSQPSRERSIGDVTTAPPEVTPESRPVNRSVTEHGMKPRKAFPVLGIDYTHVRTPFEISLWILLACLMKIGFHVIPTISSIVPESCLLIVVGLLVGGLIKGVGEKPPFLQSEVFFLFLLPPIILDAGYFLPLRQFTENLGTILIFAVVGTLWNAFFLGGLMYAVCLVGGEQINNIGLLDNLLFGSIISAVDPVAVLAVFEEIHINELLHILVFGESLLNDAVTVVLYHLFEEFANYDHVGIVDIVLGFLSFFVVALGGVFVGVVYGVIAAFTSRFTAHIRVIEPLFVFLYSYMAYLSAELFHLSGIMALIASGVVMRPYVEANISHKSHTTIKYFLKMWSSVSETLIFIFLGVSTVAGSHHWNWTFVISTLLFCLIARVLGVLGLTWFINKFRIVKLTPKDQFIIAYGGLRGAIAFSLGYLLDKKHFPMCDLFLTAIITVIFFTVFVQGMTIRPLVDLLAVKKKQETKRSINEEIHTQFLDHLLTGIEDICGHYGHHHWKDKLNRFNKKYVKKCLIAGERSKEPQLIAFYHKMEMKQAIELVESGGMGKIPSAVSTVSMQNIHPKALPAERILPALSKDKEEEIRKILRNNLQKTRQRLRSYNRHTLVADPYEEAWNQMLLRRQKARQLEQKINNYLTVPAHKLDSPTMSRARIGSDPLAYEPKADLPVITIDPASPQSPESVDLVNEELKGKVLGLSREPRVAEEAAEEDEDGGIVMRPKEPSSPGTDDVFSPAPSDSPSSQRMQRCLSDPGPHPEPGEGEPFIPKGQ

For orientation: inhibition means the relative decrease from the control value, in per cent. One may read the melting point as the temperature of the solid-liquid transition. The CC50 is the concentration at which the toxic effect on the cells reaches its halfway point. High values mean lower toxicity to the cells, low ones greater toxicity to the cells. `Nc1nnc(Cn2c(=O)c3ccccc3n(Cc3ccccc3)c2=O)[nH]1` [Compound 3i, 3-[(5-Amino-4H-1,2,4-triazol-3-yl)methyl]-1-benzylquinazoline-2,4(1H,3H)-dione] had a melting point of 262 to 265 °C. The antidepressant activity result with ICR mice is “antidepressant activity similar to amiloride; also recorded: antidepressant activity comparable with amiloride”. At NHE-1, the inhibition at 0.01 µM is 12.9%. The selectivity ratio with IL-6 secretion fell in the range of 4 to 6. For the same compound, the “secretion of interleukin 6” value in [1] (LPS-stimulated macrophages, screening (Fig. 4)) is given as “suppressed”. In addition, the IC50 in data set [1] (Mus musculus, Peritoneal macrophage, LPS-stimulated murine macrophages, read-out: IC50 of IL-6 synthesis/secretion) worked out at 24.1 µM. In data set [2], half-maximal cytotoxicity (CC50 at 24 h) was put at 146 µM.
With `Nc1nc(Cn2cnc3ccc(Br)cc3c2=O)n[nH]1` [Compound 6b, 3-[(5-Amino-1H-1,2,4-triazol-3-yl)methyl]-6-bromoquinazolin-4(3H)-one], the inhibition at 0.01 µM on NHE-1 was 25.8%. Further, the “inhibition of the synthesis of nitric oxide” value in data set [3] is “statistically significantly inhibit”. The “antiplatelet activity versus acetylsalicylic acid” value in the data set on rabbit platelets is listed as “exceeded the activity of the reference drug, acetylsalicylic acid”. Further, in [4], the IC50 stood at 506 µM. For the same compound, in data set [5], the “effect on cell viability” value is on record as “absence of a statistically significant effect on cell viability”.
Turning to `N=C(N)NN` [aminoguanidine, reference compound], in [4], the IC50 turned out to be 4520 µM.

For the origin of these results see article PMC8692498, “Synthesis and multifaceted pharmacological activity of novel quinazoline NHE-1 inhibitors” (Scientific Reports, 2021).
